SMILES strings stand for the structures.

For assay [1], the system named is E. coli. Briefly: Dextran-coated gold nanoparticle (Au NP)/Con A surface plasmon band shift assay for MIC. Format: cell-based, Escherichia coli. Conditions: E. coli 10^6 CFU, 2 hours at 37° C. in MH broth; Au NPs + Con A 30 minutes at 25° C. On the procedure: (§1) In order to investigate if the dextran-coated iron oxide nanoparticles can monitor the starch utilization due to bacterial metabolic activity, different populations of Escherichia coli (strain 8739 from ATCC) were grown in starch-containing MH broth (DIFCOTM, BD) for 2 hours at 37° C. For determination of the minimum inhibitory concentration, Escherichia coli (10^6 CFU), Serratia marcescens (ATCC, 106 CFU) and Shigella sonnie (strain 9290 from ATCC, 106CFU) were grown in a starch-containing MH broth (DIFCOTM, BD), for 2 hours at 37° C. in the presence or absence of ampicillin. […]
Accurate determination of the minimum inhibitory concentration (MIC) can prevent adverse side effects, such as renal toxicity. […] Then, aliquots of these samples were incubated with Au NPs for 30 minutes at 25° C., in the presence of Con A. Based on the shifts of the surface plasmon band, the MIC was determined to be 8 μg, as the corresponding surface plasmon band shift was statistically different than the control, containing bacteria growing in the absence of antibiotic (FIG. 8A). […] Bacterial growth was assessed based on the broth's turbidity, whereas absence of turbidity was an indicator of successful antimicrobial susceptibility. […] This concentration was identical to the Au NP-determined MIC, though the Au NP-based method yielded the same results much faster.

Assay [2] relates to E. coli. Nature of the assay: Turbidity method (24-hour incubation in MH broth) for MIC. Format: cell-based, Escherichia coli. Conditions: serial dilutions in MH broth, 24-hour incubation at 37° C. As to the method: Accurate determination of the minimum inhibitory concentration (MIC) can prevent adverse side effects, such as renal toxicity. Considering that the contemporary MIC determination depends on a day-long process, we examined if Au NPs can yield results faster without sacrificing reliability. Initially, E. coli (10^6 CFU) were incubated for 2 hours at 37° C. in MH broth, in the presence of different concentrations of ampicillin. Then, aliquots of these samples were incubated with Au NPs for 30 minutes at 25° C., in the presence of Con A. Based on the shifts of the surface plasmon band, the MIC was determined to be 8 μg, as the corresponding surface plasmon band shift was statistically different than the control, containing bacteria growing in the absence of antibiotic (FIG. 8A). Correlation with standard methods was achieved by inoculating serial dilutions of ampicillin in MH broth with E. coli, followed by a 24-hour long incubation at 37° C. Bacterial growth was assessed based on the broth's turbidity, whereas absence of turbidity was an indicator of successful antimicrobial susceptibility. […] This concentration was identical to the Au NP-determined MIC, though the Au NP-based method yielded the same results much faster.

Assay [3] deals with E. coli. Briefly: High-throughput Au-NP/Con A assay on 96-well plate. Conditions: E. coli 10^6 CFU, Con A 30-min at 25° C. Format: cell-based, Escherichia coli. An excerpt: Finally, the potential of our Au-NP-based assay for the determination of antimicrobial susceptibility in high-throughput format was investigated. In these studies, samples of heat-inactivated E. coli (10^6 CFU) and E. coli (10^6 CFU) grown in the presence or absence of ampicillin were screened with the Au-NP on a 96-well plate using a microtiter plate reader.

Assay [4] deals with E. coli. Nature of the assay: Dextran-coated iron oxide nanoparticle (IO NP)/Con A magnetic relaxation (ΔT2) assay for MIC. The conditions noted are these: E. coli 10^6 CFUs, 2 hours at 37° C. in MH broth; Con A 30-minute incubation at room temperature. Format: cell-based, Escherichia coli. As to the method:
as §1
(§2) First, we wanted to determine if magnetic IO NPs coated with dextran could be used to determine and quantify the levels of a polysaccharide (starch) in bacterial culture media. […] The samples were examined in a Bruker 0.47 T (20 MHz) magnetic relaxometer (The MiniSpec, Bruker), and the individual sample's changes in spin-spin relaxation times (ΔT2) were determined based on the formula: |ΔT2incubation time−ΔT2prior ConA|. […]
Then, utilizing the IO NPs, we determined ampicillin's MIC. […] Specifically, the magnetic-relaxation-determined minimum inhibitory concentration was 8 μg, as at this concentration we observed a drastic change in the values of ΔT2. […]

In assay [5] the test system is Shigella sonnei. Nature of the assay: Dextran-coated IO NP/Con A magnetic relaxation (ΔT2) assay for MIC. It counts as cell-based. Conditions: Shigella sonnei 10^6 CFUs, 2 hours at 37° C. in MH broth; Con A 30-minute incubation at room temperature. As to the method:
as §1, with “ampicillin. For determination of MIC in blood, bacterial stocks (10^6 CFU) were grown in the presence or absence of ampicillin in a 5%-blood-supplemented starch-containing MH broth, for 2 hours at 37° C.” for “ampicillin.”
as §2
(§3) We then determined the antibiotic susceptibility or resistance of other bacteria utilizing the IO NPs. […]

For assay [6], the system named is Serratia marcescens. Nature of the assay: Dextran-coated IO NP/Con A magnetic relaxation (ΔT2) assay of antibiotic resistance. It counts as cell-based. Conditions: Serratia marcescens 10^6 CFUs, 2 hours at 37° C. in MH broth; Con A 30-minute incubation at room temperature. As to the method:
as §1, with “ampicillin. For determination of MIC in blood, bacterial stocks (10^6 CFU) were grown in the presence or absence of ampicillin in a 5%-blood-supplemented starch-containing MH broth, for 2 hours at 37° C.” for “ampicillin.”
as §2, §3

Assay [7] has as its system E. coli. Briefly: Dextran-coated polysaccharide nanosensors, antimicrobial susceptibility in blood-supplemented MH broth. Format: cell-based, Escherichia coli. Conditions: 2 hours at 37° C., 45 minutes following Con A addition at room temperature. On the procedure: as §1, with “ampicillin. For determination of MIC in blood, bacterial stocks (10^6 CFU) were grown in the presence or absence of ampicillin in a 5%-blood-supplemented starch-containing MH broth, for 2 hours at 37° C.” for “ampicillin.”
(§4) Lastly, due to the fact that many bacteria can either cause septicemia or require growth in optically turbid media, it is important to assess bacterial susceptibility in these complex matrices. However, most current methods cannot be utilized for the detection of molecular targets and assessment of antimicrobial susceptibility in blood, due to the strong absorbance and scattering from the matrix's constituents, including platelets and red blood cells. […] After 45 minutes following Con A addition at room temperature, we determined that the E. coli's ampicillin MIC was 8 μg, without observing any nanoparticle precipitation.

In assay [8] the test system is S. marcescens. Described as above. Format: cell-based, Serratia marcescens. Conditions: 2 hours at 37° C., hour-long incubation at 25° C. As to the method:
as §1, with “ampicillin. For determination of MIC in blood, bacterial stocks (10^6 CFU) were grown in the presence or absence of ampicillin in a 5%-blood-supplemented starch-containing MH broth, for 2 hours at 37° C.” for “ampicillin.”
as §4

Assay [9] concerns E. coli. Nature of the assay: Con A-conjugated nanosensors (non-competition assay), blood cultures. Format: cell-based, Escherichia coli. Conditions: within 5 minutes after addition of bacterial sample. On the procedure: as §1, with “ampicillin. For determination of MIC in blood, bacterial stocks (10^6 CFU) were grown in the presence or absence of ampicillin in a 5%-blood-supplemented starch-containing MH broth, for 2 hours at 37° C.” for “ampicillin.”
(§5) In our first set of experiments with the aminated silica-coated nanoparticles, we determined whether these nanoparticles clustered non-specifically in the presence of Con A in solution. […]
(§6) Then, we examined if MIC determination can be achieved using these Con A-conjugated nanosensors, in blood cultures of E. coli and S. marcescens. […] Likewise, within 5 minutes the Con A-conjugated nanosensors assessed that S. marcescens was resistant to ampicillin, further corroborating the findings that the non-competition assay format provides faster results than the competition-based assay of the dextran-coated nanosensors (FIG. 20B).

Assay [10] concerns S. marcescens. Described as above. Conditions: within 5 minutes after addition of bacterial sample. It counts as cell-based, Serratia marcescens. As to the method: as §1, with “ampicillin. For determination of MIC in blood, bacterial stocks (10^6 CFU) were grown in the presence or absence of ampicillin in a 5%-blood-supplemented starch-containing MH broth, for 2 hours at 37° C.” for “ampicillin.”
as §5, §6

As to `CC1(C)S[C@@H]2[C@H](NC(=O)[C@H](N)c3ccccc3)C(=O)N2[C@H]1C(=O)O` [ampicillin], the “MIC (minimum inhibitory concentration) based on shifts of the surface plasmon band” value in assay [1] was found to be 8 µg. Further, the “Lowest ampicillin concentration where the MH broth was clear (turbidity MIC)” value in assay [2] stood at 8 µg. For the same compound, the entries for the “Categorization of sample (inhibitory or non-inhibitory)” value in [3] (2 μg ampicillin) and in assay [3] (64 μg ampicillin) were “non-inhibitory” and “inhibitory”, respectively. The “Magnetic-relaxation-determined minimum inhibitory concentration” value in assay [4] and in assay [5] was 8 µg throughout. Also, the “Antibiotic susceptibility or resistance (changes in T2)” value in assay [6] is recorded as “resistant”. Moreover, the “Ampicillin MIC in blood” value in assay [7] stood at 8 µg. Further, the “Drug susceptibility or resistance in blood” value in [8] is given as “drug resistance”. For the same compound, the “Ampicillin MIC in blood cultures, Con A-conjugated nanosensors” value in [9] is 8 µg. Besides, in assay [10], the “Drug susceptibility or resistance in blood cultures, Con A-conjugated nanosensors” value is “resistant”.

(Values after patent publication US9057094B1, “Nanoparticle-mediated methods for antimicrobial susceptibility testing of bacteria” (UNIVERSITY OF CENTRAL FLORIDA RESEARCH FOUNDATION, INC., priority 2007, dated 2015).)
